Results from US12582645B2, “Chemokine CXCR4 receptor modulators and uses related thereto” (Emory University, priority 2017, dated 2026).

Biological target: T1, CXCR4 (Homo sapiens, UniProt P61073)
T1 construct: Human T lymphoblast cells (CCRF-CEM) expressing endogenous CXCR4 receptors; endogenous in cells; host or cells: CCRF-CEM (human T lymphoblast cells)
Assay: CXCR4-CEM calcium flux assay, antagonist mode (inhibition of SDF-1α-induced calcium flux)
Assay type: cell-based
Conditions: CCRF-CEM cells expressing endogenous CXCR4, stimulated with 4 nM SDF-1α, read-out: CXCR4 Ca^2+ Flux IC50
Description: CXCR4-CEM Calcium Flux Assays
Exemplary compounds of the invention were tested for their ability to induce or inhibit calcium flux in CCRF-CEM cells, a human cell line that endogenously expresses CXCR4. Activation of CXCR4 stimulates G protein signaling which, in CCRF-CEM cells, causes a series of downstream events that leads to the release of intracellular calcium stores, or calcium flux. Calcium ion concentrations can be easily measured using a wide variety of […] calcium indicators and, as a result, calcium flux assays are commonly employed methods for measuring G protein-coupled receptor (GPCR) activity. Because the therapeutic potential of CXCR4 antagonists as anti-cancer agents likely relies on their ability to inhibit CXCR4-mediated G protein signaling, this assay was utilized as a first-pass measure of inhibitor potency.
The cells were then equilibrated to room temperature for 30 minutes before assay. […] For “antagonist mode” assessment, the cells are subsequently incubated for 25 minutes at room temperature. SDF-1α (R&D System Cat #350-NS/CF) was then added at a final concentration of 4 nM to stimulate the cells. Inhibition of SDF-1α-induced calcium flux was monitored by FDSS6000 for 90 seconds.
After correcting for background, EC50 values were determined. […] Inhibition data for the test compound over a range of concentrations was plotted as percentage inhibition of the test compound as compared to an internal control compound.

T1 sequence (P61073 whole entry): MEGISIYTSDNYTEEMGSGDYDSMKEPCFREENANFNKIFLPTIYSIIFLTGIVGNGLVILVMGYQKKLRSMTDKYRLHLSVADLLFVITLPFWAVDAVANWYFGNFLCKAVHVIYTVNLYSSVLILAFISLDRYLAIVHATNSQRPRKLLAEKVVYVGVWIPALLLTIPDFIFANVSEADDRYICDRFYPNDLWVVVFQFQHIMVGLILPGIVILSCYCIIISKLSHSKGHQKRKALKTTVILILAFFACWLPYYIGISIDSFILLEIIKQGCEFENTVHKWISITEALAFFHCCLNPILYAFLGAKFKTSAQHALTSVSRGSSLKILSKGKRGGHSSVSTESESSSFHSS

Row | Compound | IC50 [nM]
1 | NCC1=C(CN(C[C@H]2Cc3ccccc3CN2)[C@H]2CCCc3cccnc32)CCCC1 [EMU124] | 227
2 | Cc1ccc(CN(CCCN2CCNCC2)C[C@H]2Cc3ccccc3CN2)nc1 [EMU148, (R)—N-((5-methylpyridin-2-yl)methyl)-3-(piperazin-1-yl)-N-((1,2,3,4-tetrahydroisoquinolin-3-yl)methyl)propan-1-amine] | 3100
3 | c1cnc2c(c1)CCC[C@@H]2N(CC1CCCCC1)CC1Cc2c(cccc2N2CCNCC2)CN1 (single isomer, unassigned) [EMU100 (Stereoisomer 1)] | 715
4 | CN(C[C@H]1Cc2c(cccc2N2C[C@@H]3C[C@H]2CN3)CN1)C1CCCc2cccnc21 (stereo partly shown) [EMU135] | 146
5 | FC1(F)CCC(NCc2ccc(CN(C[C@H]3Cc4ccccc4CN3)[C@H]3CCCc4cccnc43)cc2)CC1 [EMU182, (S)—N-(4-(((4,4-difluorocyclohexyl)amino)methyl)benzyl)-N—(((R)-1,2,3,4-tetrahydroisoquinolin-3-yl)methyl)-5,6,7,8-tetrahydroquinolin-8-amine] | 143
6 | CN(CC1Cc2c(cccc2N2CCNCC2)CN1)[C@H]1CCCc2cccnc21 (single isomer, unassigned) [EMU034 (Stereoisomer 2)] | 314
7 | CC(C)(CCN)CN(C[C@H]1Cc2ccccc2CN1)[C@H]1CCCc2cccnc21 [EMU075] | > 33300
8 | CN(CC1Cc2ncccc2CN1)[C@H]1CCCc2cccnc21 (single isomer, unassigned) [EMU174 (Stereoisomer 1)] | > 33300
9 | C[C@@H](c1ccccn1)N(C[C@H]1Cc2ccccc2CN1)C[C@H]1Cc2ccccc2CN1 [EMU065, (S)-1-(pyridin-2-yl)-N,N-bis(((R)-1,2,3,4-tetrahydroisoquinolin-3-yl)methyl)ethanamine] | 1100
10 | Cc1nc(CN(CCCCN)C[C@H]2Cc3ccccc3CN2)cs1 [EMU110, (R)—N1-((2-methylthiazol-4-yl)methyl)-N1-((1,2,3,4-tetrahydroisoquinolin-3-yl)methyl)butane-1,4-diamine] | > 33300
11 | CN(CC1Cc2ncccc2CN1)[C@H]1CCCc2cccnc21 (single isomer, unassigned) [EMU174 (Stereoisomer 2)] | 476
12 | NCc1ccc(CN(CC2Cc3ncccc3CN2)[C@H]2CCCc3cccnc32)cc1 (single isomer, unassigned) [EMU193] | 17000
13 | CN(CC1CN(Cc2ccccn2)CCN1)[C@H]1CCCc2cccnc21 (single isomer, unassigned) [EMU023] | > 33300
14 | C[C@@H]1CN(c2cccc3c2CC(CN(C)[C@H]2CCCc4cccnc42)NC3)C[C@H](C)N1 (single isomer, unassigned) [EMU096 (Stereoisomer 2)] | 3840
15 | c1cnc(CN(CCCN2CCNCC2)[C@H]2CCCc3cccnc32)nc1 [EMU187, (S)—N-(3-(piperazin-1yl)propyl)-N-(pyrimidin-2ylmethyl)-5,6,7,8-tetrahydroquinolin-8-amine] | 4320
16 | FC1(F)CCC(CN(C[C@H]2Cc3c(cccc3N3CCNCC3)CN2)[C@H]2CCCc3cccnc32)CC1 [EMU120] | 498
17 | CN(C[C@H]1Cc2c(cccc2N2CCN3CCC[C@H]3C2)CN1)[C@H]1CCCc2cccnc21 [EMU160] | 2.92
18 | NC(=O)NC/C=C/CN(CC1Cc2ncccc2CN1)[C@H]1CCCc2cccnc21 (single isomer, unassigned) [EMU212 (Stereoisomer 1)] | 430
19 | CN(CC1CN(Cc2ccccn2)CCN1)[C@H]1CCCc2cccnc21 (single isomer, unassigned) [EMU023 (Stereoisomer 2)] | 1000
20 | NC/C=C\CN(CC1Cc2ncccc2CN1)[C@H]1CCCc2cccnc21 (single isomer, unassigned) [EMU142 (Stereoisomer 2)] | 503
21 | NCCCCN(Cc1nccs1)C[C@H]1Cc2ccccc2CN1 [EMU111, (R)—N1-((1,2,3,4-tetrahydroisoquinolin-3-yl)methyl)-N1-(thiazol-2-ylmethyl)butane-1,4-diamine] | > 33300
22 | c1cnc2c(c1)CCC[C@@H]2N(CCCN1CCNCC1)Cc1nc2ccccc2s1 [EMU186, (S)—N-((1H-benzo[d]thiazol-2yl)methyl)-N-(3-(piperazine-1yl)propyl)-5,6,7,8-tetrahydroquinolin-8-amine] | 1200
23 | CN(CC1Cc2c(cccc2NC2CCNCC2)CN1)[C@H]1CCCc2cccnc21 (single isomer, unassigned) [EMU044 (Stereoisomer 2)] | 1700

Now from value to compound:

Row | IC50 [nM] | Compound
24 | 24.2 | C(=C\CN(C[C@H]1Cc2ccccc2CN1)[C@H]1CCCc2cccnc21)/CNCC1CCOCC1 [EMU180, (E)-N1-((tetrahydro-2H-pyran-4-yl)methyl)-N4-(((R)-1,2,3,4-tetrahydroisoquinolin-3-yl)methyl)-N4-((S)-5,6,7,8-tetrahydroquinolin-8-yl)but-2-ene-1,4-diamine]
25 | 33.9 | CN(C[C@H]1Cc2c(cccc2N2CCNC(C)(C)C2)CN1)[C@H]1CCCc2cccnc21 [EMU136]
26 | 18.1 | CN(CC1Cc2c(cccc2NC2CCNCC2)CN1)[C@H]1CCCc2cccnc21 (single isomer, unassigned) [EMU044 (Stereoisomer 1)]
27 | 111 | NCc1ccc(CN(CC2Cc3ncccc3CN2)[C@H]2CCCc3cccnc32)cc1 (single isomer, unassigned) [EMU194]
28 | 92.8 | C(=C\CN(C[C@H]1Cc2ccccc2CN1)[C@H]1CCCc2cccnc21)/CNCc1cccnc1 [EMU222, (E)-N1-(pyridin-3-ylmethyl)-N4-(((R)-1,2,3,4-tetrahydroisoquinolin-3-yl)methyl)-N4-((S)-5,6,7,8-tetrahydroquinolin-8-yl)but-2-ene-1,4-diamine]
29 | 33.7 | Cc1cccnc1CN(CCCN1CCNCC1)C[C@H]1Cc2c(cccc2N2CCNCC2)CN1 [EMU164, (R)—N-((3-methylpyridin-2-yl)methyl)-3-(piperazin-1-yl)-N-((5-(piperazin-1-yl)-1,2,3,4-tetrahydroisoquinolin-3-yl)methyl)propan-1-amine]
30 | 29.6 | CN1CCN(c2cccc3c2C[C@H](CN(C)[C@H]2CCCc4cccnc42)NC3)CC1 [EMU116]
31 | 61 | C[C@@H]1CN(c2cccc3c2CC(CN(C)[C@H]2CCCc4cccnc42)NC3)C[C@H](C)N1 (single isomer, unassigned) [EMU096 (Stereoisomer 1)]
32 | 16.9 | CC(C)N1CCN(c2cccc3c2C[C@H](CN(C)[C@H]2CCCc4cccnc42)NC3)CC1 [EMU197]
33 | 11.4 | CN(C[C@H]1Cc2c(cccc2N2C[C@@H]3CCN(C)[C@@H]3C2)CN1)C1CCCc2cccnc21 (stereo partly shown) [EMU236]
34 | 32 | CN1Cc2cccc(N3CCNCC3)c2C[C@@H]1CN(C)[C@H]1CCCc2cccnc21 [EMU234]
35 | 21.4 | Cc1cnc(CN(C)C[C@H]2Cc3c(cccc3N3CCNCC3)CN2)c(C)c1 [EMU107, (R)-1-(3,5-dimethylpyridin-2-yl)-N-methyl-N-((5-(piperazin-1-yl)-1,2,3,4-tetrahydroisoquinolin-3-yl)methyl)methanamine]
36 | 16.1 | Cc1cnc2c(c1)CCC[C@@H]2N(C)C[C@H]1Cc2c(cccc2N2CCNCC2)CN1 [EMU230, (S)—N,3-dimethyl-N—(((R)-5-(piperazin-1-yl)-1,2,3,4-tetrahydroisoquinolin-3-yl)methyl)-5,6,7,8-tetrahydroquinolin-8-amine]
37 | 58.1 | CN1Cc2cccc(N3CCN4CCC[C@H]4C3)c2C[C@@H]1CN(C)[C@H]1CCCc2cccnc21 [EMU241]
38 | 79.9 | C/C(CN(C[C@H]1Cc2ccccc2CN1)[C@H]1CCCc2cccnc21)=C(\F)CN [EMU125]
39 | 92.1 | Cc1cccnc1CN(CCCN1CCNCC1)C[C@H]1Cc2ccccc2CN1 [EMU149, (R)—N-((3-methylpyridin-2-yl)methyl)-3-(piperazin-1-yl)-N-((1,2,3,4-tetrahydroisoquinolin-3-yl)methyl)propan-1-amine]
40 | 28.3 | C/C(CN)=C(\F)CN(CC1Cc2ccccc2CN1)[C@H]1CCCc2cccnc21 (stereo partly shown) [EMU140]
41 | 45.3 | c1cnc2c(c1)CCC[C@@H]2N(CCCN1CCNCC1)Cc1nc2ccccc2[nH]1 [EMU185, (S)—N-((1H-benzo[d]imidazole-2yl)methyl)-N-(3-(piperazine-1yl)propyl)-5,6,7,8-tetrahydroquinolin-8-amine]
42 | 19.1 | NCC1CC1CN(C[C@H]1Cc2ccccc2CN1)[C@H]1CCCc2cccnc21 (single isomer, unassigned) [EMU030 (Stereoisomer 2)]
43 | 13.4 | CN1CCC(N(C)c2cccc3c2C[C@H](CN(C)[C@H]2CCCc4cccnc42)NC3)CC1 [EMU240]
44 | 21.5 | CN(C[C@H]1Cc2c(cccc2NCCN2CCOCC2)CN1)[C@H]1CCCc2cccnc21 [EMU173, (S)—N-methyl-N—(((R)-5-((2-morpholinoethyl)amino)-1,2,3,4-tetrahydroisoquinolin-3-yl)methyl)-5,6,7,8-tetrahydroquinolin-8-amine]
45 | 43.7 | C/C(CN)=C(/F)CN(C[C@H]1Cc2ccccc2CN1)[C@H]1CCCc2cccnc21 [EMU141]
46 | 6.08 | CN(CC1Cc2c(cccc2N2CCNCC2)CN1)[C@H]1CCCc2cccnc21 (single isomer, unassigned) [EMU034 (Stereoisomer 1)]
